Here are results for two compounds from US20240285634A1, “COMPOUND AND METHOD FOR TREATING CHEMOTHERAPY-ASSOCIATED GASTROINTESTINAL SIDE EFFECTS” (ONQUALITY PHARMACEUTICALS CHINA LTD., priority 2021, published 2024).

Assay [1] deals with Chemotherapeutic agent-caused diarrhea models of Balb/c mice. The assay is described as follows: Relieving effect on diarrhea caused by a chemotherapeutic agent (Examples 1-201). Type of assay: in vivo. The method in brief:
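Balb/c mice (10/group) given Formula I compound by injection or gavage, then a chemotherapeutic agent to induce diarrhea, with solvent and chemotherapy-only controls. Diarrhea graded 0–3 daily; relative remission rate = % of treated mice graded below the chemotherapy-group average.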

The subject of assay [2] is Chemotherapeutic agent-caused constipation models of Balb/c mice. The experiment in a line: Relieving effect on constipation caused by a chemotherapeutic agent (Examples 202-364). Type of assay: in vivo. The gist of the method: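 Balb/c mice, 10 per group, given Formula I compound (injected or intragastric) before a chemotherapeutic agent, with dose, route and schedule per agent. Controls received solvent only or solvent plus chemotherapeutic. Faeces over 3 h recorded daily; feces reduction rate computed relative to control group.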

Counter-ions that a name gives are not always drawn.

On to `CC(C)N1CCN(c2ccc(Nc3ncc4cc5n(c4n3)C3(CCCCC3)CNC5=O)nc2)CC1` [Compound IV hydrochloride, Lerociclibdihydrochloride], for which the Relative remission rate in assay [1] (Ex 115, Irinotecan (CPT-11) 240 mg/kg intraperitoneal single, compound 100 mg/kg intraperitoneal single 0.5 h before, cycle 11 days) is recorded as 40%; in assay [1] (Ex 116, Irinotecan (CPT-11) 240 mg/kg intraperitoneal single, compound 100 mg/kg intraperitoneal single 4 h before, cycle 11 days) it was 60%; in assay [1] (Ex 117, Irinotecan (CPT-11) 240 mg/kg intraperitoneal single, compound 100 mg/kg intraperitoneal single 12 h before, cycle 11 days), 20%; in assay [1] (Ex 188, Fluorouracil 50 + oxaliplatin 5 + irinotecan 50 + tetrahydrofolic acid 90 mg/kg intravenous single, compound 100 mg/kg intraperitoneal single 0.5 h before, cycle 7 days) it was 70%; in assay [1] (Ex 189, Fluorouracil 50 + oxaliplatin 5 + irinotecan 50 + tetrahydrofolic acid 90 mg/kg intravenous single, compound 100 mg/kg intraperitoneal single 12 h before, cycle 7 days) it was 50%; in assay [1] (Ex 201, Gemcitabine 120 + carboplatin 5 mg/kg intravenous single, compound 100 mg/kg oral single 24 h before, cycle 8 days), 40%. For the same compound, the “Relative remission rate (%)” value was 20% in assay [2] (Example 353, Fluorouracil 100 (F), oxaliplatin 5 (O), irinotecan 100 (I) and tetrahydrofolic acid 100 (L) mg/kg intraperitoneal injection single, compound intraperitoneal injection 100 mg/kg single, 0.5 h before chemotherapeutic agent, cycle 7 days); 60% in assay [2] (Example 354, Fluorouracil 100 (F), oxaliplatin 5 (O), irinotecan 100 (I) and tetrahydrofolic acid 100 (L) mg/kg intraperitoneal injection single, compound intraperitoneal injection 100 mg/kg single, 12 h before chemotherapeutic agent, cycle 7 days); 30% in assay [2] (Example 357, Topotecan intraperitoneal injection 10 mg/kg single, compound oral administration 100 mg/kg single, 24 h before chemotherapeutic agent, cycle 14 days); 70% in assay [2] (Example 358, Topotecan intravenous injection 20 mg/kg single, compound oral administration 100 mg/kg single, 12 h before chemotherapeutic agent, cycle 14 days).
On to `CC(C)N1CCN(c2ccc(Nc3ncc4cc5n(c4n3)C3(CCCCC3)CNC5=O)nc2)CC1` [Compound IV, Lerociclib], for which the Relative remission rate in assay [1] (Ex 112, Irinotecan (CPT-11) 240 mg/kg intraperitoneal single, compound 100 mg/kg intraperitoneal single 0.5 h before, cycle 11 days) stood at 60%; in assay [1] (Ex 113, Irinotecan (CPT-11) 240 mg/kg intraperitoneal single, compound 100 mg/kg intraperitoneal single 4 h before, cycle 11 days) it was 50%; in assay [1] (Ex 114, Irinotecan (CPT-11) 240 mg/kg intraperitoneal single, compound 100 mg/kg intraperitoneal single 8 h before, cycle 11 days), 30%; in assay [1] (Ex 135, Fluorouracil 100 + irinotecan 200 mg/kg intraperitoneal single, compound 100 mg/kg oral single 0.5 h before, cycle 8 days) it was 30%; in assay [1] (Ex 136, Fluorouracil 100 + irinotecan 200 mg/kg intraperitoneal single, compound 100 mg/kg oral single 12 h before, cycle 8 days), 50%; in assay [1] (Ex 137, Fluorouracil 100 + irinotecan 200 mg/kg intraperitoneal single, compound 100 mg/kg oral single 24 h before, cycle 8 days) it was 40%. The Relative remission rate in assay [1] (Ex 183, Fluorouracil 50 + oxaliplatin 5 + irinotecan 50 + tetrahydrofolic acid 90 mg/kg intravenous single, compound 100 mg/kg intraperitoneal single 0.5 h before, cycle 7 days) is on record as 80%; in assay [1] (Ex 184, Fluorouracil 50 + oxaliplatin 5 + irinotecan 50 + tetrahydrofolic acid 90 mg/kg intravenous single, compound 100 mg/kg intraperitoneal single 4 h before, cycle 7 days), 60%; in assay [1] (Ex 185, Fluorouracil 50 + oxaliplatin 5 + irinotecan 50 + tetrahydrofolic acid 90 mg/kg intravenous single, compound 100 mg/kg intraperitoneal single 8 h before, cycle 7 days), 50%; in assay [1] (Ex 186, Fluorouracil 50 + oxaliplatin 5 + irinotecan 50 + tetrahydrofolic acid 90 mg/kg intravenous single, compound 100 mg/kg intraperitoneal single 12 h before, cycle 7 days), 50%; in assay [1] (Ex 187, Fluorouracil 50 + oxaliplatin 5 + irinotecan 50 + tetrahydrofolic acid 90 mg/kg intravenous single, compound 100 mg/kg intraperitoneal single 24 h before, cycle 7 days) it was 40%; in assay [1] (Ex 195, Topotecan 20 mg/kg intravenous single, compound 100 mg/kg oral single 0.5 h before, cycle 14 days), 60%. Further, in assay [1] (administered before the chemotherapeutic agent, Table 3 and FIG. 2), the “diarrhea gradings compared with the chemotherapeutic agent group” value is on record as “relieved to different degrees”. Besides, the “Relative remission rate (%)” value is given as 30% in assay [2] (Example 246, Fluorouracil (5-Fu) intravenous injection 250 mg/kg single, compound oral administration 100 mg/kg single, 0.5 h before chemotherapeutic agent, cycle 10 days); 60% in assay [2] (Example 247, Fluorouracil (5-Fu) intravenous injection 250 mg/kg single, compound oral administration 100 mg/kg single, 4 h before chemotherapeutic agent, cycle 10 days); 20% in assay [2] (Example 248, Fluorouracil (5-Fu) intravenous injection 250 mg/kg single, compound oral administration 100 mg/kg single, 12 h before chemotherapeutic agent, cycle 10 days); 60% in assay [2] (Example 351, Fluorouracil 100 (F), oxaliplatin 5 (O), irinotecan 100 (I) and tetrahydrofolic acid 100 (L) mg/kg intraperitoneal injection single, compound oral administration 100 mg/kg single, 4 h before chemotherapeutic agent, cycle 7 days); 30% in assay [2] (Example 352, Fluorouracil 100 (F), oxaliplatin 5 (O), irinotecan 100 (I) and tetrahydrofolic acid 100 (L) mg/kg intraperitoneal injection single, compound oral administration 100 mg/kg single, 24 h before chemotherapeutic agent, cycle 7 days); 60% in assay [2] (Example 363, Gemcitabine and carboplatin intraperitoneal injection 120 mg/kg single, compound oral administration 100 mg/kg single, 4 h before chemotherapeutic agent, cycle 8 days). Further, the “feces reduction rates compared with the chemotherapeutic agent group” value in assay [2] (administered before the chemotherapeutic agent, Table 4 and FIG. 4) is listed as “reduced to different degrees”.
